In brackets after ≈: the same amount, converted by molar mass. Some results are limits rather than exact numbers.

The results in this text go back to ChEMBL document CHEMBL1909588, “Synthesis and in vitro antitubercular evaluation of novel sansanmycin derivatives” (2011).

This test concerns Mycobacterium tuberculosis. As to the kind of experiment: Antitubercular activity against Mycobacterium tuberculosis H37Rv […] by microplate alamar blue assay. It is filed as functional. (Alamar Blue is a resazurin reagent that responds to reducing activity.)
In general, MIC refers to the lowest concentration that inhibits growth of the organism. As to `CSCCC(NC(=O)NC(Cc1c[nH]c2ccccc12)C(=O)O)C(=O)NC(C(=O)N/C=C1\C[C@@H](O)[C@H](n2ccc(=O)[nH]c2=O)O1)C(C)N(C)C(=O)C(Cc1cccc(O)c1)NC(C)C` (stereo not given in full), the MIC amounted to 8 µg/mL (≈ 8.83 µM). In the case of `CCCCNC(Cc1cccc(O)c1)C(=O)N(C)C(C)C(NC(=O)C(CCSC)NC(=O)NC(Cc1c[nH]c2ccccc12)C(=O)O)C(=O)N/C=C1\C[C@@H](O)[C@H](n2ccc(=O)[nH]c2=O)O1` (stereo not given in full) it was over 16 µg/mL; in that of `CSCCC(NC(=O)NC(Cc1c[nH]c2ccccc12)C(=O)O)C(=O)NC(C(=O)N/C=C1\C[C@@H](O)[C@H](n2ccc(=O)[nH]c2=O)O1)C(C)N(C)C(=O)C(Cc1cccc(O)c1)NC(=O)CCl` (stereo not given in full), over 16 µg/mL. In turn, `CSCCC(NC(=O)NC(Cc1c[nH]c2ccccc12)C(=O)O)C(=O)NC(C(=O)N/C=C1\C[C@@H](O)[C@H](n2ccc(=O)[nH]c2=O)O1)C(C)N(C)C(=O)C(Cc1cccc(O)c1)NS(=O)(=O)c1ccccc1` (stereo not given in full) displayed an MIC of over 16 µg/mL. With `CSCCC(NC(=O)NC(Cc1c[nH]c2ccccc12)C(=O)O)C(=O)NC(C(=O)N/C=C1\C[C@@H](OC(C)=O)[C@H](n2ccc(=O)[nH]c2=O)O1)C(C)N(C)C(=O)C(Cc1cccc(OC(C)=O)c1)NC(C)=O` (stereo not given in full) the figure was over 16 µg/mL.

`COc1ccc(S(=O)(=O)NC(Cc2cccc(O)c2)C(=O)N(C)C(C)C(NC(=O)C(CCSC)NC(=O)NC(Cc2c[nH]c3ccccc23)C(=O)O)C(=O)N/C=C2\C[C@@H](O)[C@H](n3ccc(=O)[nH]c3=O)O2)cc1` (stereo not given in full) registered an MIC of over 16 µg/mL. With `CCNC(Cc1cccc(O)c1)C(=O)N(C)C(C)C(NC(=O)C(CCSC)NC(=O)NC(Cc1c[nH]c2ccccc12)C(=O)O)C(=O)N/C=C1\C[C@@H](O)[C@H](n2ccc(=O)[nH]c2=O)O1` (stereo not given in full) the figure was over 16 µg/mL; with `COC(=O)NC(Cc1cccc(O)c1)C(=O)N(C)C(C)C(NC(=O)C(CCSC)NC(=O)NC(Cc1c[nH]c2ccccc12)C(=O)O)C(=O)N/C=C1\C[C@@H](O)[C@H](n2ccc(=O)[nH]c2=O)O1` (stereo not given in full), over 16 µg/mL; with `CO[C@H]1/C=C/O[C@@]2(C)Oc3c(C)c(O)c4c(O)c(c(/C=N/N5CCN(C)CC5)c(O)c4c3C2=O)NC(=O)/C(C)=C\C=C\[C@H](C)[C@H](O)[C@@H](C)[C@@H](O)[C@@H](C)[C@H](OC(C)=O)[C@@H]1C` [RIFAMPIN], 0.12 µg/mL (≈ 0.146 µM). `CCCCCNC(Cc1cccc(O)c1)C(=O)N(C)C(C)C(NC(=O)C(CCSC)NC(=O)NC(Cc1c[nH]c2ccccc12)C(=O)O)C(=O)N/C=C1\C[C@@H](O)[C@H](n2ccc(=O)[nH]c2=O)O1` (stereo not given in full) showed an MIC of over 16 µg/mL. With `NNC(=O)c1ccncc1` [ISONIAZID] the figure was 0.05 µg/mL (≈ 0.365 µM); with `CSCCC(NC(=O)NC(Cc1c[nH]c2ccccc12)C(=O)O)C(=O)NC(C(=O)N/C=C1\C[C@@H](O)[C@H](n2ccc(=O)[nH]c2=O)O1)C(C)N(C)C(=O)C(Cc1cccc(O)c1)NC(=O)OCc1ccccc1` (stereo not given in full), over 16 µg/mL; with `CCCNC(Cc1cccc(O)c1)C(=O)N(C)C(C)C(NC(=O)C(CCSC)NC(=O)NC(Cc1c[nH]c2ccccc12)C(=O)O)C(=O)N/C=C1\C[C@@H](O)[C@H](n2ccc(=O)[nH]c2=O)O1` (stereo not given in full), over 16 µg/mL. With `CSCCC(NC(=O)NC(Cc1c[nH]c2ccccc12)C(=O)O)C(=O)NC(C(=O)N/C=C1\C[C@@H](O)[C@H](n2ccc(=O)[nH]c2=O)O1)C(C)N(C)C(=O)C(N)Cc1cccc(O)c1` (stereo not given in full) [SANSANMYCIN A] the figure was 16 µg/mL (≈ 18.5 µM); with `CSCCC(NC(=O)NC(Cc1c[nH]c2ccccc12)C(=O)O)C(=O)NC(C(=O)N/C=C1\C[C@@H](O)[C@H](n2ccc(=O)[nH]c2=O)O1)C(C)N(C)C(=O)C(Cc1cccc(OC(C)=O)c1)NC(C)=O` (stereo not given in full), over 16 µg/mL. In the case of `CSCCC(NC(=O)NC(Cc1c[nH]c2ccccc12)C(=O)O)C(=O)NC(C(=O)N/C=C1\C[C@@H](O)[C@H](n2ccc(=O)[nH]c2=O)O1)C(C)N(C)C(=O)C(Cc1cccc(O)c1)NC(=O)c1ccccc1` (stereo not given in full) it was over 16 µg/mL.

On to `CSCCC(NC(=O)NC(Cc1c[nH]c2ccccc12)C(=O)O)C(=O)NC(C(=O)N/C=C1\C[C@@H](O)[C@H](n2ccc(=O)[nH]c2=O)O1)C(C)N(C)C(=O)C(Cc1cccc(O)c1)N(C)C` (stereo not given in full), for which the minimum inhibitory concentration (MIC) amounted to 16 µg/mL (≈ 17.9 µM). In the case of `CCOC(=O)NC(Cc1cccc(O)c1)C(=O)N(C)C(C)C(NC(=O)C(CCSC)NC(=O)NC(Cc1c[nH]c2ccccc12)C(=O)O)C(=O)N/C=C1\C[C@@H](O)[C@H](n2ccc(=O)[nH]c2=O)O1` (stereo not given in full) it was over 16 µg/mL; in that of `CSCCC(NC(=O)NC(Cc1c[nH]c2ccccc12)C(=O)O)C(=O)NC(C(=O)N/C=C1\C[C@@H](O)[C@H](n2ccc(=O)[nH]c2=O)O1)C(C)N(C)C(=O)C(Cc1cccc(O)c1)NS(=O)(=O)c1ccc(C)cc1` (stereo not given in full), over 16 µg/mL. Molecule `CSCCC(NC(=O)NC(Cc1c[nH]c2ccccc12)C(=O)O)C(=O)NC(C(=O)N/C=C1\C[C@@H](O)[C@H](n2ccc(=O)[nH]c2=O)O1)C(C)N(C)C(=O)C(Cc1cccc(O)c1)NS(C)(=O)=O` (stereo not given in full) had an MIC of over 16 µg/mL.
